Data on 73 compounds can be found in PubChem BioAssay AID179 (DTP/NCI, 2004).

This assay deals with CEM cells HIV-1 protection, formazan growth assay. As to the kind of experiment: NCI AIDS Antiviral Assay. Conditions: for IC50: measured here: growth of uninfected CEM cells. The procedure, abridged: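 Category rules: moderately active means at least 50% protection on retest, and confirmed active means 100% protection reproducibly. The underlying data came from a formazan growth assay in HIV-1-infected CEM cells.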

Activity calls are given as the source filed them.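 The calls were made as follows: active = compounds giving half or more protection of infected cells from virus-caused growth loss, again on retest; inactive = the rest.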 Some results are limits rather than exact numbers.

In the case of `CCCCCCNC(=S)N/N=C(\C)c1ccccn1`, the EC50 was more than 0.2 µM and the half-maximal inhibitory concentration (IC50) is 0.0324 µM.
Consider `CC(C)CC(NC=O)C(=O)NC(Cc1ccccc1)NC(=O)CNC(=O)C(C)NC(=O)C(N)Cc1ccc(O)cc1` (stereo unspecified), for which the EC50 is 141 µM and the IC50 was determined as 151 µM.
Turning to `Cn1c(-c2cccs2)cc(-c2cccs2)c1-c1ccco1`, the EC50 was more than 200 µM and the 50% inhibitory concentration (IC50) was 30.2 µM.
On the same counts, the results for `COC(=O)C(=O)C(C#N)c1cccc(O)c1C(=O)OC` (stereo unspecified) are more than 36.3 µM and more than 36.3 µM.
For `O=C(NCCO)c1c(CO)n([O-])c2ccccc2[n+]1=O` the same measures were more than 646 µM and 214 µM.
For `N#C/C(=C\c1ccccc1)c1cccc(Br)c1`, the EC50 is more than 200 µM and the IC50 was more than 200 µM.
For `O=c1c2ccccc2oc2c(Cl)cc(Cl)cc12`, the EC50 is more than 490 µM and the IC50 worked out at 263 µM.
Consider `CC1(C)Cc2nnsc2C2=C1C(=O)CCS2`, for which the outcome was inactive.
Turning to `COC(=O)[C@H](Cc1ccccc1)NP(=O)(O)OCC1C=CC(n2cc(C)c(=O)[nH]c2=O)O1` (stereo partly specified), the concentration giving a half-maximal response (EC50) was 8.71 µM and the IC50 was more than 200 µM.
For `C[C@@H]1C[C@@H](O)[C@]2(O)O[C@@H]3C[C@@]4(C=O)[C@@H](CC[C@@H]5[C@@H]4CC[C@]4(C)[C@@H](C6=CC(=O)OC6)CC[C@]54O)C[C@H]3O[C@@H]2O1` the same measures were more than 468 µM and 1.82 µM.
On the same counts, the results for `Oc1ccccc1/C=N/N=C/c1ccccc1O` are more than 200 µM and more than 200 µM.
For `O=C1/C(=C\c2c(-c3ccccc3)nn(-c3ccccc3)c2O)C(c2ccccc2)=NN1c1ccccc1` the same measures were more than 100 µM and more than 100 µM.
As for `CCSc1[nH]c(NC(=S)NC(=O)c2ccccc2Cl)c(C(N)=O)c1C(N)=O`, the EC50 is more than 200 µM and the half-inhibitory concentration (IC50) was determined as 110 µM.
For `Oc1c(CN2CCOCC2)ccc2ccccc12` the same measures were more than 200 µM and 191 µM.
Consider `CCCCCC=C(c1cc(Cl)c(OC)c(C(=O)NO)c1)c1cc(Cl)c(OC)c(C(=O)NO)c1`, for which the EC50 is more than 200 µM and the IC50 amounted to 1.95 µM.
For the compound `Cc1ccc(NC=O)cc1F`, the result was inactive.
On to `CO/C(CO)=C1\CC2(OC1=O)[C@@H]1O[C@@H]1C1(O)[C@H]3C(=O)O[C@@H]([C@@H](OC)C21C)[C@@]3(O)C(C)C` (stereo partly specified), for which the EC50 was more than 407 µM and the IC50 was more than 407 µM.
Turning to `CC1(C)CC(=O)C2=C(C1)OC1(CC2c2ccc(Cl)cc2)CC(c2ccc(Cl)cc2)C2=C(CC(C)(C)CC2=O)O1` (stereo unspecified), the EC50 was more than 100 µM and the IC50 stood at 15.1 µM.
On the same counts, the results for `COc1cccc(/C=C2/Sc3sc(C(C)=O)c(C)[n+]3C2=O)c1O` are more than 89.1 µM and 34.7 µM.
For `C/C(=N\NC(=S)N1CCN(c2ccccn2)CC1)c1nccs1` the same measures were more than 145 µM and 0.646 µM.
On the same counts, the results for `CSc1nc(-c2ccccc2)[nH]c(=O)n1` are more than 200 µM and more than 200 µM.
For `COc1ccccc1OCc1nnc(SCC(=O)O)n1-c1ccccc1`, the EC50 was more than 676 µM and the half-inhibitory concentration (IC50) is more than 676 µM.
Turning to `O=C(/C=C/c1ccccc1O)C(c1ccccc1)c1ccccc1`, the EC50 is more than 12 µM and the 50% inhibitory concentration (IC50) was more than 12 µM.
Regarding `S=c1ncc(-c2cncc(-c3cnc(=S)[nH]c3)n2)c[nH]1`, the EC50 is more than 200 µM and the IC50 was more than 200 µM.
In the case of `O=[N+]([O-])c1ccc(C2=Nn3c(nnc3-c3ccccc3)SC2)o1`, the outcome was inactive.
As for `O=C1SS(=O)c2ccccc21` (stereo unspecified), the EC50 was more than 200 µM and the 50% inhibitory concentration (IC50) came out at 95.5 µM.
`CCOC(=O)CC(=O)Nc1cccc2[nH]cnc12`: the EC50 is more than 200 µM and the IC50 is more than 200 µM.
As to `COC(=O)C1=C(C(=O)OC)C2(C(=O)OC)OC1(OC)C(C1(C(=O)OC)C(C(=O)OC)=C1C(=O)OC)=C2C(=O)OC` (stereo unspecified), the outcome was inactive.
Take `COc1ccc(CC2c3c(cc(OC)c(OC)c3OC)CCN2C)cc1OC` (stereo unspecified): the EC50 was more than 589 µM and the IC50 came out at 158 µM.
For `CC(C)(C)C1CCC2(CC1)CCN(CCCN1CCOCC1)CC2` the same measures were more than 55 µM and 12.3 µM.
In the case of `COc1ccc(CC2c3cc(OC)c(OC)c(OC)c3CC[N+]2(C)C)cc1Oc1ccc(CC2c3cc4c(c(OC)c3CCN2C)OCO4)cc1` (stereo unspecified), the result was inactive.
Consider `C=C(C)[C@@H]1CC[C@]2(C)CC[C@@]3(C)[C@]4(C)CC[C@H]5C(C)(C)[C@@H](OC(=O)CCC(=O)O)CC[C@]5(C)[C@H]4CC[C@]3(C)[C@@H]12`, for which the concentration giving a half-maximal response (EC50) was 44.7 µM and the IC50 was more than 100 µM.
For `N#Cc1cnc2nc1NCCCCCCC2` the same measures were more than 204 µM and 132 µM.
Consider `O=CC(O)C(O)C(O)C(O)COP(=O)(O)Cc1ccccc1` (stereo unspecified), for which the EC50 is more than 200 µM and the 50% inhibitory concentration (IC50) is more than 200 µM.
In the case of `C1=NCCNCCN=Cc2ccccc2OCc2cccc(n2)COc2ccccc21`, the EC50 was more than 200 µM and the 50% inhibitory concentration (IC50) is 10.7 µM.
On to `CC(=O)Nc1cc(N=Nc2ccc(NC(=O)c3ccc(N)cc3)cc2C)c(S(=O)(=O)O)cc1N=Nc1ccc(N=Nc2ccc(S(=O)(=O)O)cc2)cc1`, for which the EC50 is 5.62 µM and the IC50 is more than 100 µM.
`CNC(=O)N1CN(c2ccccc2)C2(CCN(Cc3ccccc3)CC2)C1=O`: the EC50 was 195 µM and the IC50 is more than 200 µM.
On the same counts, the results for `COc1cc(C2c3cc4c(cc3C(O)[C@H]3COC(=O)[C@@H]23)OCO4)cc(OC)c1O` (stereo partly specified) are more than 200 µM and 1.12 µM.
On the same counts, the results for `CC1=CC(=O)C(=C(C)C)CC1` are more than 200 µM and 129 µM.
Turning to `OC1(c2cccc3ccccc23)CCCc2cc3c(ccc4ccccc43)cc21` (stereo unspecified), the EC50 was more than 200 µM and the IC50 is 155 µM.
For `NC1=NCC(CN2CCCCC2)O1` (stereo unspecified) the same measures were more than 200 µM and more than 200 µM.
On the same counts, the results for `CCN(CC)CCCCC1CCN(CC(=O)N2c3ccccc3NC(=O)c3ccccc32)CC1` are more than 282 µM and 158 µM.
Take `CCOC(=O)/C(C#N)=C/c1ccccc1Br`: the result was inactive.
The same measure, in the same setting: then `Cc1cc(C)c(/C=N/NS(=O)(=O)c2ccccc2)c(C)c1`, with “inactive”.
On the same count and under the same terms, then `CCCCCCCCCCC(C)CCCCCCC(=O)O` (stereo unspecified), with “inactive”.
As to `O=S1(=O)OC2(c3ccccc31)c1cc(Br)c(O)c(O)c1Oc1c2cc(Br)c(O)c1O`, the EC50 was more than 39.8 µM and the IC50 was determined as 36.3 µM.
On the same counts, the results for `CCOC(=O)c1[nH]n(-c2ccccc2)c(=O)c1/C=N/C(=S)NCCc1ccc(OC)c(OC)c1` are more than 200 µM and 51.3 µM.
For `C=C1OC(c2ccccc2NC)=NC12CCCCC2` the same measures were more than 200 µM and 115 µM.
For `COC(=O)/C=C/c1c(=O)c(C(=O)OC)cn2cnc3nc[nH]c3c12` the same measures were more than 50.1 µM and more than 50.1 µM.
Consider `Oc1ccc(Cc2cc(Cc3ccc(O)cc3)cc(Cc3ccc(O)cc3)c2)cc1`, for which the 50% effective concentration (EC50) worked out at 93.3 µM and the 50% inhibitory concentration (IC50) is more than 100 µM.
On the same counts, the results for `O=S1c2ccccc2N=C(c2ccc3ccccc3c2)CC1C1=CC=CCC1` (stereo unspecified) are more than 18.6 µM and more than 18.6 µM.
On the same counts, the results for `O=C(O)Cn1cnc2c(=O)[nH]c(Nc3ccccc3)nc21` are more than 200 µM and more than 200 µM.
Turning to `N#CC1(C#N)C(c2ccc(C3C(C#N)(C#N)C3(C#N)C#N)cc2)C1(C#N)C#N`, the result was inactive.
Consider `C=CC(C)(C)c1cccc2[nH]c3c(c12)CC1CCC2(O)C4=CC(=O)C5OC4(CCC2(C)[C@@]31C)OC5(C)C` (stereo partly specified), for which the outcome was inactive.
Turning to `CCc1ccccc1NC(=O)CCc1n[nH]c(=S)o1`, the EC50 is 44.7 µM and the concentration for half-maximal inhibition (IC50) turned out to be 67.6 µM.
Turning to `O=Cc1c(O)ccc2ccc(O)c(-c3c(O)ccc4ccc(O)cc34)c12`, the EC50 was more than 363 µM and the IC50 stood at 20.9 µM.
For `CC(=O)OC(/C=C/c1ccccc1)=C(OC(C)C)/C1=C(\c2ccccc2)SCCCSC1=O` the same measures were more than 200 µM and more than 200 µM.
For `CN(C)C1C(=O)C(C(=O)NCN2CCOB(c3ccccc3)OCC2)=C(O)C2(O)C(O)=C3C(=O)C4C(O)=CC=CC4C(C)(O)C3CC12` (stereo unspecified) the same measures were 31.6 µM and 39.8 µM.
Regarding `O=C(O)C12C3CCCC1C2CC3` (stereo unspecified), the outcome was inactive.
Turning to `COc1ccc(/C(=N/Nc2nc3ccccc3[nH]2)C(=O)O)cc1`, the EC50 was more than 200 µM and the concentration for half-maximal inhibition (IC50) was more than 200 µM.
Take `C/C=C/CP(=O)(c1ccccc1)c1ccccc1`: the EC50 was 0.0631 µM and the 50% inhibitory concentration (IC50) is more than 200 µM.
For `CCCCCCCCCCCCCCCC(=O)NC(Cc1ccc(O)cc1)C(=O)O` (stereo unspecified) the same measures were more than 100 µM and 50.1 µM.
Take `COC(C(=O)NCCCCNC(=O)C(OC)c1ccccc1)c1ccccc1` (stereo unspecified): the result was inactive.
For `Cc1ccc2nn(-c3ccc(O)cc3)[n+]([O-])c2c1`, the EC50 is more than 200 µM and the IC50 is more than 200 µM.
Take `CCN(CC)CCCNc1nccc2c(C)c3c(cc12)c1cnccc1n3C`: the outcome was inactive.
As to `[O-]c1on[n+]2c1CCCC2`, the result was inactive.
With `N#CC(C#N)=C1SCC(=O)CS1`, the outcome was inactive.
As to `CCOC(=O)CC/C(=N/Nc1ccc(Cl)cc1[N+](=O)[O-])C(=O)OCC`, the EC50 was more than 200 µM and the IC50 is more than 200 µM.
In the case of `Cc1c2cc(Br)ccc2nc(CCl)[n+]1[O-]`, the EC50 was more than 20 µM and the IC50 was determined as 0.977 µM.
On the same counts, the results for `c1cc2nnc1SCCCSc1ccc(nn1)SCCCSc1ccc(nn1)SCCCS2` are more than 100 µM and more than 100 µM.
On the same counts, the results for `CN(O)C(=O)/C=C/c1ccc(OCc2cccc(Cl)c2)cc1` are more than 200 µM and 46.8 µM.
For `Cc1cc(NS(=O)(=O)c2ccc(Nc3c4ccccc4nc4ccccc34)cc2)no1` the same measures were more than 200 µM and 2 µM.
In the case of `CC(=O)Nc1ccc(OC2=CCN(C)CC2)cc1`, the EC50 is more than 200 µM and the IC50 was more than 200 µM.
